Reference: ChEMBL document CHEMBL3352476, “Antimicrobial Constituents of the Mature Carpels of Manglietiastrum sinicum” (J Nat Prod, 2014)
≈ marks a conversion by molar mass, not a printed value. Counter-ions that a name gives are not always drawn. Calls of active or inactive are those of the source. No cut-off for these calls is given here.

Assays:
[1] = Cytotoxicity against human HL60 cells by MTT assay; assay type: functional, cell-based; details: HL-60
[2] = Cytotoxicity against human SSMC-7721 cells by MTT assay; assay type: functional, cell-based
[3] = test system: A549; assay: Cytotoxicity against human A549 cells by MTT assay; assay type: functional, cell-based
[4] = test system: MCF7; assay: Cytotoxicity against human MCF7 cells by MTT assay; assay type: functional, cell-based
[5] = test system: SW480; assay: Cytotoxicity against human SW480 cells by MTT assay; assay type: functional, cell-based
[6] = test system: Platelet; assay: Inhibition of PAF-induced platelet aggregation in rabbit platelet rich plasma at 200 ug/ml preincubated for 10 mins before addition of inducer by aggregometry; assay type: functional; details: Oryctolagus cuniculus
[7] = test system: Platelet; assay: Inhibition of ADP-induced platelet aggregation in rabbit platelet rich plasma at 200 ug/ml preincubated for 10 mins before addition of inducer by aggregometry; assay type: functional; details: Oryctolagus cuniculus
[8] = test system: Platelet; assay: Inhibition of arachidonic acid-induced platelet aggregation in rabbit platelet rich plasma at 200 ug/ml preincubated for 10 mins before addition of inducer by aggregometry; assay type: functional; details: Oryctolagus cuniculus
[9] = test system: Staphylococcus aureus; assay: Antimicrobial activity against methicillin-resistant Staphylococcus aureus 82 by 2-fold dilution assay; assay type: functional
[10] = test system: Staphylococcus aureus; assay: Antimicrobial activity against methicillin-resistant Staphylococcus aureus 92 by 2-fold dilution assay; assay type: functional
[11] = test system: Staphylococcus aureus; assay: Antimicrobial activity against methicillin-resistant Staphylococcus aureus 98 by 2-fold dilution assay; assay type: functional
[12] = test system: Staphylococcus aureus; assay: Antimicrobial activity against methicillin-resistant Staphylococcus aureus 331 by 2-fold dilution assay; assay type: functional
[13] = test system: Staphylococcus aureus; assay: Antimicrobial activity against Staphylococcus aureus by 2-fold dilution assay; assay type: functional
[14] = test system: Staphylococcus aureus; assay: Antimicrobial activity against Staphylococcus aureus by agar plate punch assay; assay type: functional

| SMILES | IC50 [1] | IC50 [2] | IC50 [3] | IC50 [4] | IC50 [5] | inhibition [6] | inhibition [7] | inhibition [8] | MIC [9] | MIC [10] | MIC [11] | MIC [12] | MIC [13] | diameter of the inhibition zone (DIZ) [14] |
| --- | --- | --- | --- | --- | --- | --- | --- | --- | --- | --- | --- | --- | --- | --- |
| COc1cc2c(cc1O)[C@@H]1O[C@H](c3cc4c(c(OC)c3-2)OCO4)[C@H](C)[C@@H]1C | 17 µM | 38.2 µM | > 40 µM | > 40 µM | > 40 µM | inactive | inactive | inactive | 140 µM (≈ 51.9 µg/mL) | 68 µM (≈ 25.2 µg/mL) | 34 µM (≈ 12.6 µg/mL) | 140 µM (≈ 51.9 µg/mL) | 68 µM (≈ 25.2 µg/mL) |  |
| COc1cc([C@@H]2O[C@H](c3ccc4c(c3)OCO4)[C@H](C)[C@H]2C)cc(O)c1OC | > 40 µM | > 40 µM | > 40 µM | > 40 µM | > 40 µM | inactive | inactive | inactive | 67 µM (≈ 25 µg/mL) | 67 µM (≈ 25 µg/mL) | 67 µM (≈ 25 µg/mL) | 34 µM (≈ 12.7 µg/mL) | 67 µM (≈ 25 µg/mL) |  |
| COc1cc([C@@H]2O[C@H](c3cc(O)c(OC)c(OC)c3)[C@@H](C)[C@@H]2C)ccc1O | > 40 µM | > 40 µM | > 40 µM | > 40 µM | > 40 µM | inactive | inactive | inactive | 67 µM (≈ 25.1 µg/mL) | 130 µM (≈ 48.7 µg/mL) | 130 µM (≈ 48.7 µg/mL) | 130 µM (≈ 48.7 µg/mL) | 130 µM (≈ 48.7 µg/mL) |  |
| CN[C@H](CC(C)C)C(=O)N[C@H]1C(=O)N[C@@H](CC(N)=O)C(=O)N[C@H]2C(=O)N[C@H]3C(=O)N[C@H](C(=O)N[C@H](C(=O)O)c4cc(O)cc(O)c4-c4cc3ccc4O)[C@H](O)c3ccc(c(Cl)c3)Oc3cc2cc(c3O[C@@H]2O[C@H](CO)[C@@H](O)[C@H](O)[C@H]2O[C@H]2C[C@](C)(N)[C@H](O)[C@H](C)O2)Oc2ccc(cc2Cl)[C@H]1O [VANCOMYCIN HYDROCHLORIDE] |  |  |  |  |  |  |  |  | 0.54 µM | 0.54 µM | 0.54 µM | 0.54 µM | 1.1 µM |  |
| COc1cc(C(=O)O[C@@H](c2cc(OC)c(OC)c(OC)c2)[C@H](C)C(C)=O)ccc1O | > 40 µM | > 40 µM | > 40 µM | > 40 µM | > 40 µM | inactive | inactive | inactive |  |  |  |  |  | <10 mm |
| COc1cc(C(=O)O[C@@H](c2cc(O)c(OC)c(OC)c2)[C@H](C)C(C)=O)cc(O)c1OC | > 40 µM | > 40 µM | > 40 µM | > 40 µM | > 40 µM | inactive | inactive | inactive |  |  |  |  |  | <10 mm |
| COc1cc([C@H]2O[C@@H](c3ccc4c(c3)OCO4)[C@H](C)[C@@H]2C)cc(O)c1OC | 39.8 µM | > 40 µM | 27.4 µM | 14 µM | 19.1 µM | inactive | inactive | inactive | 67 µM (≈ 25 µg/mL) | 67 µM (≈ 25 µg/mL) | 34 µM (≈ 12.7 µg/mL) | 130 µM (≈ 48.4 µg/mL) | 67 µM (≈ 25 µg/mL) |  |
| COC1=CC2(C=C(OC)C1=O)C[C@@H](C)[C@H](C)Cc1cc3c(c(OC)c12)OCO3 | > 40 µM | > 40 µM | > 40 µM | > 40 µM | > 40 µM | inactive | inactive | inactive | 65 µM (≈ 25.1 µg/mL) | 65 µM (≈ 25.1 µg/mL) | 16 µM (≈ 6.18 µg/mL) | 32 µM (≈ 12.4 µg/mL) | 130 µM (≈ 50.2 µg/mL) |  |
